Each structure is given as a SMILES string. Residue numbers refer to the chain shown, from its start.

For test [1], the target named is T1, Sos-PH (Homo sapiens, UniProt Q07889).
T1 construct: expressed in transfected cells; host or cells: COS-1
T1 sequence (Q07889 422-551): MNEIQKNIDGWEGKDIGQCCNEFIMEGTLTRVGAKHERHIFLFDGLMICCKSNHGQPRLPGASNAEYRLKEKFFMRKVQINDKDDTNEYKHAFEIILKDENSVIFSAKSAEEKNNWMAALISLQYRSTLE
Nature of the test: PA-induced plasma membrane translocation of GFP-tagged Sos-PH in COS-1 cells (fluorescence microscopy). The format is cell-based, African green monkey. Conditions: membrane-permeable PA 100 μM, 20 min, serum-starved COS-1 cells, wild-type Sos-PH. The protocol: (§1) In FIG. 6A, COS-1 cells were transfected with GFP-tagged constructs of Sos-PH or Sos-PH-HR/EE. The cells were serum-starved and then treated with PA (100 μM) for 20 min. In FIG. 6B, COS-1 cells were transfected with HA-tagged Sos-ΔC or Sos-ΔC-HR/EE. The cells were serum-starved and then stimulated with serum (20%) for 10 min. For FIGS. 6A-B, the fluorescence staining patterns were analyzed through the acquisition of serial optical Z sections. The images shown represent single 0.25 μm optical sections acquired at the mid plane of the cells with the same exposure time. Membrane localization is reflected by the relative increase in fluorescence intensity at the cell periphery (arrowheads). The boxed areas are enlarged on the top and bottom of the corresponding images. The number of cells displaying plasma membrane localization of the protein is expressed as percentage of the total number of cells scored and normalized to the maximal value obtained for each experiment. […] Results are the mean+/−s.d. of three independent experiments with at least 100 cells scored in each experiment. Scale bars represent 20 μm in all panels. In FIGS. 6C-D, COS-1 cells were co-transfected with HA-tagged Ras and the indicated HA-tagged Sos-ΔC constructs. […] Ras activation was measured by the RBD pull-down assay as described in the Examples. […]

In test [2] the target is T2, Sos-PH (Homo sapiens, UniProt Q07889, H475E/R479E).
T2 construct: expressed in transfected cells; host or cells: COS-1
T2 sequence (Q07889 422-551 H475E/R479E): T1 sequence (Q07889 422-551) with H54E, R58E
Described as above. Format: cell-based, African green monkey. The following applies: membrane-permeable PA 100 μM, 20 min, serum-starved COS-1 cells. The procedure: as §1

The subject of another test is Ras. Nature of the test: Ras activation by Sos-ΔC after PA treatment, RBD pull-down in COS-1 cells. Format: cell-based. Conditions: membrane-permeable PA 100 μM, serum-starved COS-1 cells. The procedure: as §1, with “The boxed areas are enlarged on the top and bottom of the corresponding images.” left out, “experiment.” for “experiment. Scale bars represent 20 μm in all panels. In FIGS. 6C-D, COS-1 cells were co-transfected with HA-tagged Ras and the indicated HA-tagged Sos-ΔC constructs.”
The levels of Ras-GTP were determined by the GST-RBD pull down assay as described previously (Boykevisch et al., “Regulation of Ras Signaling Dynamics by Sos-mediated Positive Feedback,” Curr. Biol. 16:2173-2179 (2006), which is hereby incorporated by reference in its entirety). […]

A further test deals with HIF2α. Nature of the test: HIF2α expression in 786-O cells (Western blot). The format is cell-based, human. The following applies: 0.5% serum, 4 hr, honokiol 20 μM, 1-BtOH 0.8%.

Procedure for HIF2α: In FIG. 15B, 786-O cells were plated and then shifted to media containing 0.5% serum 24 hr later. 18 hr later, the cells were treated with 1-Bt0H (0.8%), honokiol (Hon) (20 μM), and t-BtOH (0.8%) as indicated. Cell lysates were prepared 4 hr later and examined for HIF2α and actin expression by Western lot analysis. The experiment shown is representative of two independent experiments.
Extraction of proteins from cultured cells and Western blot analysis of extracted proteins was performed using the ECL system (Amersham) as described previously (Chen et al., “Alternative Phospholipase D/mTOR Survival Signal in Human Breast Cancer Cells,” Oncogene 24:672-9 (2005), which is hereby incorporated by reference in its entirety).
The effect of honokiol on HIF2α expression was examined in these cells.

As for `CCCCCCCCCCCC(=O)OC[C@H](COP(=O)(O)O)OC(=O)CCCCCCCCCCC` [PA, 1,2-Dilauroyl-sn-Glycero-3-Phosphate], the “Sos-PH translocation to the plasma membrane” value on Sos-PH [1] is “stimulated”. The “plasma membrane recruitment of Sos-PH-HR/EE” value on Sos-PH [2] is reported as “failed to induce”. Also, in the test on Ras, the “Ras activation by SosΔC” value was “sufficed to induce” and the “level of active Ras in cells expressing SosΔC-HR/EE” value was “did not increase”.

As for `CCCCO` [1-butanol], the HIF2α expression result with HIF2α is given as “suppressed”.

Source of the values: patent US20120301895A1, “METHODS OF MODULATING BINDING OF SON OF SEVENLESS TO PHOSPHATIDIC ACID AND IDENTIFYING COMPOUNDS THAT MODULATE SUCH BINDING” (THE RESEARCH FOUNDATION OF STATE UNIVERSITY OF NEW YORK, priority 2007, published 2012).
